Measured values from US20220169598A1, “HALOGENATED PHENYLSULFONAMIDE HYDROXAMIC ACID COMPOUNDS, COMPOSITIONS AND USES THEREOF AS SELECTIVE HDAC6 INHIBITORS” (2681603 ONTARIO INC., priority 2019, published 2022).
Like-named read-outs stand apart in the source and are kept apart here.

Columns and labels:
[1] = test system: K562; test: Cytotoxicity in cell lines; assay type: cell-based; settings: Homo sapiens
Method: (§1) The cytotoxicity of exemplary compounds of the application was tested in multiple cell lines including MV-4-11, MOLM-13, MCF-7, MRC9, K562 and MM.1S. The therapeutic index was evaluated by determining the toxicity of the exemplary compounds in healthy cell lines including fibroblasts and HUVEC.

[2] = test system: MOLM-13; test: Cytotoxicity in cell lines; assay type: cell-based; settings: Homo sapiens
Method: as §1

[3] = test system: MV-4-11; test: Cytotoxicity in cell lines; assay type: cell-based; settings: Homo sapiens
Method: as §1

[4] = test system: MM.1S; test: Cytotoxicity in cell lines; assay type: cell-based; settings: Homo sapiens, MM1.S; Table 4
Method: as §1

[5] = test system: HeLa cells; test: Immunofluorescence analysis of α-tubulin and histone H3 acetylation; assay type: cell-based; settings: 6 h treatment
Source text: Similar analysis is shown for exemplary compound I-34 in FIG. 19.

[6] = Kinetic solubility by analytical HPLC; assay type: physicochemical; settings: PBS with 5% (v/v) DMSO, aqueous with cosolvent or surfactant or cyclodextrin, kinetic from dmso stock; PBS + 5% DMSO; initial concentration 300 μM; read-out: Saturation Concentration
Method: The initial concentration of each exemplary compound was 300 μM.

[7] = test system: HUVEC; test: Toxicity in healthy cell lines; assay type: cell-based; settings: Homo sapiens, read-out: IC50 HUVEC
Method: as §1

[8] = test system: Normal Human Fibroblast; test: Toxicity in healthy cell lines; assay type: cell-based; settings: read-out: IC50 Normal Human Fibroblast
Method: as §1

[9] = test system: MRC9; test: Cytotoxicity in cell lines; assay type: cell-based; settings: Table 5
Method: as §1

[10] = test system: panel of 97 kinases; test: Kinome screen; assay type: biochemical; settings: kinase screen
[11] = biological target: T1, HDAC6 (Homo sapiens, UniProt Q9UBN7); test: in vitro activity-based HDAC assay; assay type: biochemical; settings: ranges given; read-out: IC50 for HDAC6
T1 sequence (Q9UBN7 1-1215): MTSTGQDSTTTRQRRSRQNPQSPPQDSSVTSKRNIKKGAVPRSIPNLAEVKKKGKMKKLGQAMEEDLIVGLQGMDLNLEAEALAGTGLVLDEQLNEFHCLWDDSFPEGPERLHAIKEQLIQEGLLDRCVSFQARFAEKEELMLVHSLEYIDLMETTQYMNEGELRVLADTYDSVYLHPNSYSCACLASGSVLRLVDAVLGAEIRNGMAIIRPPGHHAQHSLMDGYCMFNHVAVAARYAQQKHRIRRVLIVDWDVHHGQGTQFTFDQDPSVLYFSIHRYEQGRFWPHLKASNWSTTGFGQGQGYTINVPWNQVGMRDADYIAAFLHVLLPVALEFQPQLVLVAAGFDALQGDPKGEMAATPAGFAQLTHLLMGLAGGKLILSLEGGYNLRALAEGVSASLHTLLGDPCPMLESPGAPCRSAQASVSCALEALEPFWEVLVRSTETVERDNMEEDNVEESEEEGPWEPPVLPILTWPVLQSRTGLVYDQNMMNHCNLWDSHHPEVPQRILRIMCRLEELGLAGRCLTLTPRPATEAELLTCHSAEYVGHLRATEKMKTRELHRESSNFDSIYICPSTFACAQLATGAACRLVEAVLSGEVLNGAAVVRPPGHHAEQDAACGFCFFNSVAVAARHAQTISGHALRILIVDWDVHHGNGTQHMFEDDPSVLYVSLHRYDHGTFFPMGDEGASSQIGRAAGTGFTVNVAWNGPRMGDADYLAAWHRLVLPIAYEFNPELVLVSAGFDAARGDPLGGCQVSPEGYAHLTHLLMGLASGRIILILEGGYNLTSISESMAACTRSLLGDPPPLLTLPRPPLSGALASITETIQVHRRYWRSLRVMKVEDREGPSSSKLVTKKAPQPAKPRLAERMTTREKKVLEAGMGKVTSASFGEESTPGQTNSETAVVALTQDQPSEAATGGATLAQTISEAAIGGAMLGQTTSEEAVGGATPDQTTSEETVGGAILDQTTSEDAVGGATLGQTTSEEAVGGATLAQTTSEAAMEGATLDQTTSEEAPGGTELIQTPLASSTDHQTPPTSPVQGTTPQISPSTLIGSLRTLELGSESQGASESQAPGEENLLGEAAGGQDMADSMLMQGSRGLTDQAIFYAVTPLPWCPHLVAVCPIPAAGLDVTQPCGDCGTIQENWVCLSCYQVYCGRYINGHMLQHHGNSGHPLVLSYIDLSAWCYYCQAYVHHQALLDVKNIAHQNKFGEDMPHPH
Method: The exemplary compounds of Formula I and structurally related compounds were synthesized to assess their structure-activity relationship. […] The IC50 values for each exemplary compound were used to calculate the selectivity of the exemplary compounds for Formula I to HDAC6. The selectivity of each exemplary compound for HDAC6 was determined from examining the potency of HDAC6 in relation to the highest binding affinity of the other HDAC isoforms tested.

[12] = K562, Table 5, read-out: IC50 K562
[13] = MOLM-13, Table 5, read-out: IC50 MOLM-13
[14] = MV4-11, Table 5, read-out: IC50 MV-411
[15] = MV4-11, Table 4, read-out: IC50 MV-411
[16] = K562, Table 4, read-out: IC50 K562
[17] = MOLM-13, Table 4, read-out: IC50 MOLM-13

In the case of `COc1cc(/C=C/C(=O)NO)ccc1CN(Cc1cccnc1F)S(=O)(=O)c1cc(F)c(F)c(F)c1F` [Compound I-77], the IC50 [1, 12] is reported as 72.8 µM, the IC50 [2, 13] is reported as 3.3 µM and the IC50 [3, 14] is reported as 1.1 µM.
`O=C(/C=C/c1ccc(CN(Cc2cccnc2F)S(=O)(=O)c2cc(F)c(F)c(F)c2F)c(C(F)(F)F)c1)NO` [Compound I-79] showed an IC50 [1, 12] of 25.9 µM, an IC50 [2, 13] of 7.9 µM and an IC50 [3, 14] of 0.329 µM.
With `O=C(NO)c1ccc(CN(C2CCCC2)S(=O)(=O)c2cc(F)c(F)c(F)c2F)cc1` [Compound I-51, 4-(((N-cyclopentyl-2,3,4,5-tetrafluorophenyl)sulfonamido)methyl)-N-hydroxybenzamide] the IC50 [4] was 2.7 µM and the IC50 [3, 15] was 2.8 µM.
For `O=C(CCCCCCNC(=O)c1cnc(N(c2ccccc2)c2ccccc2Cl)nc1)NO` [Citarinostat, reference compound], the “effect on α-tubulin acetylation (immunofluorescence)” value [5] was “no preferential acetylation on α-tubulin until high concentrations”.
Compound `CC(C)CN(Cc1ccc(C(=O)NO)cc1)S(=O)(=O)c1cc(F)c(F)c(F)c1F` [Compound I-54, N-hydroxy-4-(((2,3,4,5-tetrafluoro-N-isobutylphenyl)sulfonamido)methyl)benzamide] has an IC50 [4] of 0.7 µM and an IC50 [3, 15] of 0.5 µM.
`O=C(NO)c1ccc(CN(Cc2cccnc2)S(=O)(=O)c2cc(F)c(F)c(F)c2F)c(F)c1` [Compound I-30, 3-fluoro-N-hydroxy-4-((2,3,4,5-tetrafluoro-N-(pyridin-3-ylmethyl)phenylsulfonamido)methyl)benzamide] showed a solubility kinetic [6] of 46 ± 4.4 µM, an IC50 [1, 16] of 9.3 µM and an IC50 [2, 17] of 2.9 µM. It also gave an IC50 [3, 15] of 0.607 µM, an IC50 ([7]; Table 4, healthy cells) of 4.1 µM and an IC50 ([8]; Table 4, healthy cells) of 6.1 µM.
With `CC(C)N(Cc1cc(F)c(C(=O)NO)cc1F)S(=O)(=O)c1cc(F)c(F)c(F)c1F` [Compound I-52, 2,5-difluoro-N-hydroxy-4-(((2,3,4,5-tetrafluoro-N-isopropylphenyl)sulfonamido)methyl)benzamide] the IC50 [4] was 0.4 µM and the IC50 [3, 15] was 1 µM.
`O=C(NO)c1ccc(CN(CCc2ccccc2F)S(=O)(=O)c2cc(F)c(F)c(F)c2F)cc1` [Compound I-21, N-hydroxy-4-((2,3,4,5-tetrafluoro-N-(2-fluorophenethyl)phenylsulfonamido)methyl)benzamide] showed an IC50 [1, 16] of 7.9 µM, an IC50 [2, 17] of 1.7 µM and an IC50 [3, 15] of 0.478 µM.
In the case of `O=C(CCCCCCNC(=O)c1cnc(N(c2ccccc2)c2ccccc2)nc1)NO` [Ricolinostat, reference compound], the solubility kinetic [6] is reported as 26.1 ± 11.3 µM, the IC50 ([1]; K562, read-out: IC50 K562) is reported as 12.8 µM and the IC50 ([2]; MOLM-13, read-out: IC50 MOLM-13) is reported as 6.49 µM. For the same compound, the IC50 ([3]; MV4-11, read-out: IC50 MV-411) was 0.656 µM, the IC50 [7] was 4.9 µM and the IC50 [8] was 5.7 µM.
Work on `O=C(/C=C/c1ccc(CN(C2CC2)S(=O)(=O)c2c(F)c(F)c(F)c(F)c2F)cc1)NO` [Compound I-56] yielded an IC50 [9] greater than 50 µM.
In the case of `CC(C)N(Cc1ccc(C(=O)NO)cc1)S(=O)(=O)c1cc(F)c(F)c(F)c1F` [Compound I-12, N-hydroxy-4-((2,3,4,5-tetrafluoro-N-isopropylphenylsulfonamido)methyl)benzamide], the solubility kinetic [6] is reported as 74.5 ± 3 µM and the “inhibitory activity on a panel of 97 kinases” value [10] is reported as “limited to no inhibitory activity”.
In the case of `O=C(NO)c1ccc(CN(Cc2cccnc2F)S(=O)(=O)c2cc(F)c(F)c(F)c2F)c(F)c1` [Compound I-32, 3-fluoro-N-hydroxy-4-((2,3,4,5-tetrafluoro-N-((2-fluoropyridin-3-yl)methyl)phenylsulfonamido)methyl)benzamide], the IC50 [1, 16] is reported as 8.6 µM, the IC50 [2, 17] is reported as 1.98 µM and the IC50 [3, 15] is reported as 0.389 µM. For the same compound, the IC50 ([7]; Table 4, healthy cells) was 5.1 µM and the IC50 ([8]; Table 4, healthy cells) was 7.1 µM.
Work on `O=C(/C=C/c1ccc(CN(C2CCCC2)S(=O)(=O)c2c(F)c(F)c(F)c(F)c2F)cc1)NO` [Compound I-57, (E)-3-(4-((N-cyclopentyl-2,3,4,5,6-pentafluorophenylsulfonamido)methy)phenyl)-N-hydroxyacrylamide] yielded an IC50 [11] of 0.01 to 0.03 µM and an IC50 [9] greater than 50 µM.
Work on `CC(C)N(Cc1ccc(CC(=O)NO)cc1)S(=O)(=O)c1cc(F)c(F)c(F)c1F` [Compound I-70, N-hydroxy-2-(4-((2,3,4,5-tetrafluoro-N-isopropylphenylsulfonamido)methyl)phenyl)acetamide] yielded an IC50 [11] of 0.1 to 0.15 µM and an IC50 [3, 14] of 2.5 µM.
For `O=C(NO)c1ccc(CN(Cc2cccnc2F)S(=O)(=O)c2cc(F)c(F)c(F)c2F)cc1` [Compound I-19, N-hydroxy-4-((2,3,4,5-tetrafluoro-N-((2-fluoropyridin-3-yl)methyl)phenylsulfonamido)methyl)benzamide], the IC50 [1, 16] was 5.6 µM.
Compound `O=C(/C=C/c1ccc(CN(Cc2cccnc2)S(=O)(=O)c2cc(F)c(F)c(F)c2F)c(C(F)(F)F)c1)NO` [Compound I-80] has an IC50 [1, 12] of 16.3 µM, an IC50 [2, 13] of 7.6 µM and an IC50 [3, 14] of 0.338 µM.
